Assay results: paper PMC6017046, “Synergistic Promotion on Tyrosinase Inhibition by Antioxidants” (Molecules : A Journal of Synthetic Chemistry and Natural …, 2018)

Tests used:
[1] = DPPH free radical-scavenging capacity assay; details: 0.1 mmol/L DPPH, 30 min, absorbance 517 nm; read-out: IC50 of antioxidant solutions (DPPH scavenging / DPPH clearance rate)
Protocol: The DPPH free radical-scavenging capacity of the samples are determined according to the method of a previous study with slight modifications. Samples (100l) of various concentrations are added to 100 µL of 0.1 mmol/L DPPH solution in methanol at room temperature. After 30 min, the absorbance is measured at 517 nm with a UV-visible spectrophotometer (MAPADA UV-6100PCS, Shanghai, China). The percentage of free radical (DPPH) scavenging activity (I%) is calculated according to following formula: I%=ODck−ODsample/ODck×100 where ODck is the absorbance of the control reaction, which involves all the reagents except the test compound, and ODsample is the absorbance of the test compound.

Mushroom tyrosinase [2] = molecular target: T1, Mushroom tyrosinase (Agaricus bisporus, UniProt C7FF04); experiment: Mushroom tyrosinase inhibitory assay, L-tyrosine as substrate; format: biochemical
T1 sequence (C7FF04 1-392): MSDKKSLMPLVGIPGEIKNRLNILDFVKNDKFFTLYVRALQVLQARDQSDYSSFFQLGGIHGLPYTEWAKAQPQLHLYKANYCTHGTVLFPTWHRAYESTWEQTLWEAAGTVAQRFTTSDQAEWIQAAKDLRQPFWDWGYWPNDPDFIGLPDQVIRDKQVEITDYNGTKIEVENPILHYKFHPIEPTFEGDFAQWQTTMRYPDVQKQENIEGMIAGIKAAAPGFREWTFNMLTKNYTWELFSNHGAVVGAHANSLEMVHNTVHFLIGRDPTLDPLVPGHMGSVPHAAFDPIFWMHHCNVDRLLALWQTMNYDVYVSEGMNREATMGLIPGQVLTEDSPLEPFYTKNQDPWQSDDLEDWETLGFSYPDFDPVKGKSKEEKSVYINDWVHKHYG
Protocol: Inhibitory activity against tyrosinase is examined through an improved spectrophotometric method using L-DOPA and L-tyrosine as substrates. […] The reaction mixture is incubated at 37 °C for 15 min. Mushroom tyrosinase (40 µL, 200 units/mL) is added to the reaction mixture and incubated at 30 °C for 20 min.
(§1) Dopachrome formation is monitored at 475 nm with a UV-visible spectrophotometer (MAPADA UV-6100PCS). The rate of the inhibition of tyrosinase activity (I%) is determined according to the following formula: I%=(A2−A1)−(B2−B1)/(A2−A1)×100 where A1 and A2 are the absorbance values of the blank at 475 nm at 0 min and 20 min, respectively, and B1 and B2 is the absorbance levels of the test sample at 475 nm at 0 min and 20 min, respectively.
The 50% inhibition concentration (IC50) value is determined with SPSS 17.0 statistical software (International Business Machines Corporatio, Armonk, NY, USA). All experiments are performed at least in triplicate. Data are analyzed by unpaired Student’s t-test, followed by Dunnett’s multiple comparison test (SPSS version 17.0). P values lower than 0.05 are considered significant. The interactions are calculated using combination index (CI) according to [22]: CI=IC50amix/IC50a+IC50bmix/IC50b where IC50a and IC50b are obtained from pure compounds, and IC50amix is the concentration of individual compound in the mixture that cause 50% inhibition. Obtained CI values equal, smaller, or greater than 1 indicate an additive, synergistic, or antagonistic effect, respectively.

Mushroom tyrosinase [3] = molecular target: T1, Mushroom tyrosinase; details: ref 1 (GLA), ref 25 (OXYR), ref 26 (RES); cited from earlier work
[4] = molecular target: T2, tyrosinase activity of PIG1 cells (Homo sapiens, UniProt P14679); experiment: Intracellular tyrosinase activity assay in UVB-irradiated PIG1 cells (L-DOPA oxidation); format: cell-based; details: 300 mJ/cm^2 UVB, 24 h, L-DOPA substrate, read-out: IC50, inhibition against tyrosinase activities
T2 construct: The intracellular tyrosinase activity of the PIG1 cells; host or cells: PIG1 immortalized human epidermal melanocytes
T2 sequence (P14679 19-529): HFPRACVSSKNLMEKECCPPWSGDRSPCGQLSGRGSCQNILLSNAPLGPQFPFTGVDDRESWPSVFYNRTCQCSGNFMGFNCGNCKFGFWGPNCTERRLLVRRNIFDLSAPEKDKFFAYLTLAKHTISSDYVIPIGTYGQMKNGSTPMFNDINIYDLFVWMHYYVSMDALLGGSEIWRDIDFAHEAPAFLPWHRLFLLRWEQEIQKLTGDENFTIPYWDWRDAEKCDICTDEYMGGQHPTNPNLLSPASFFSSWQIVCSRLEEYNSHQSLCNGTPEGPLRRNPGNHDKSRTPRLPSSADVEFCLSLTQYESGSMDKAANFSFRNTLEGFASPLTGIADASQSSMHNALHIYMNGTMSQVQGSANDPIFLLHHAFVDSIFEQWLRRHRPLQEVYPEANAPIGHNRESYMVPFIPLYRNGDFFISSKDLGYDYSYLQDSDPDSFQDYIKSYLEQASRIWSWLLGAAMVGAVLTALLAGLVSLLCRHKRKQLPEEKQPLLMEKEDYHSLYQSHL
Protocol: Immortalized human epidermal melanocyte cells from cell line PIG1 are obtained from Shanghai Guandao Bio-engineering Ltd. Co. (Shanghai, China). PIG1 cells are cultured at 37 °C with 5% CO2 in Medium 254 (#M-254-500, Thermo Fisher Scientific, New York, NY, USA) supplemented with human melanocyte growth supplement-2 (Thermo Fisher Scientific, New York, NY, USA) and 5% (v/v) fetal bovine serum (Thermo Fisher Scientific, New York, NY, USA).
The UVB source employed in this study is a Sigma SH4B light therapy device (Shanghai SIGMA High-tech Co., Ltd., Shanghai, China). […] UVB irradiation treatment is conducted when cells reached approximately 70% confluence according to the methods of Zeng et al. [19]. Before UVB irradiation, the supernatant is removed and replaced with PBS. […] The control group receives the same treatment as the UVB group but is not administered any drug.
PIG1 cells (1 × 10^4 cells/well) are seeded in 96-well plates and incubated for 24 h in CO2 until 70–80% confluence is reached. Subsequently, the complete medium is replaced with 100 µL of PBS, and the cells are exposed to 300 mJ/cm^2 UVB irradiation. […] The intracellular tyrosinase activity of the PIG1 cells are estimated by measuring the L-DOPA oxidation capacity according to the method of Rong et al. [21]. […] The products of the reaction are measured by reading the absorbance at 475 nm.

Mushroom tyrosinase [5] = molecular target: T1, Mushroom tyrosinase; experiment: Mushroom tyrosinase inhibitory assay, L-DOPA as substrate; format: biochemical; details: read-out: IC50, tyrosinase activity, single compounds
Protocol: The reaction mixture is incubated at 37 °C for 15 min. Subsequently, 40 µL of 100 units/mL mushroom tyrosinase is added to the reaction mixtures and incubated at 37 °C for 20 min. […] The reaction mixture is incubated at 37 °C for 15 min. Subsequently, 40 µL of 5 mM L-DOPA is added to the reaction mixture and incubated at 30 °C for 20 min.
as §1
The 50% inhibition concentration (IC50) value is determined with SPSS 17.0 statistical software (International Business Machines Corporatio, Armonk, NY, USA). All experiments are performed at least in triplicate. Data are analyzed by unpaired Student’s t-test, followed by Dunnett’s multiple comparison test (SPSS version 17.0). P values lower than 0.05 are considered significant. […]

| SMILES | IC50 [1] [µM] | IC50 (Mushroom tyrosinase [2]) [µM] | mode of tyrosinase inhibition (Mushroom tyrosinase [3]) | IC50 [4] [µM] | IC50 (Mushroom tyrosinase [2]; L-Tyrosine as substrate, read-out: IC50, tyrosinase activity, single compounds) [µM] | IC50 (Mushroom tyrosinase [5]) [µM] |
| --- | --- | --- | --- | --- | --- | --- |
| Oc1cc(O)cc(/C=C/c2ccc(O)cc2O)c1 [OXYR, Oxyresveratrol] | 76 ± 0.07 | 2.5 ± 0.06 | non-competitive | – | – | – |
| Oc1ccc(/C=C/c2cc(O)cc(O)c2)cc1 [RES, Resveratrol] | 142 ± 0.03 | 23 ± 0.05 | Kcat or suicide inhibitor | > 100 | – | – |
| CC1(C)C=Cc2c(ccc3c2OC[C@@H](c2ccc(O)cc2O)C3)O1 [GLA, Glabridin] | 458 ± 0.037 | 1.5 ± 0.03 | non-competitive | – | – | – |
| CC(c1ccccc1)c1ccc(O)cc1O (centres unmarked) [PR, Phenylethylresorcinol] | 119 ± 0.07 | – | non-competitive | – | 0.28 ± 0.03 | 35.5 ± 0.06 |
